We go through 25 compounds from patent publication US8513411B2, “Tetrahydro-imidazo[1,5-α] pyrazine derivatives, preparation process and medicinal use thereof” (Jiangsu Hengrui Medicine Co., Ltd., priority 2007, dated 2013).

Where a name gives a salt, the structure may show the parent alone.

Chain of DPP-IV enzyme (P27487 whole entry): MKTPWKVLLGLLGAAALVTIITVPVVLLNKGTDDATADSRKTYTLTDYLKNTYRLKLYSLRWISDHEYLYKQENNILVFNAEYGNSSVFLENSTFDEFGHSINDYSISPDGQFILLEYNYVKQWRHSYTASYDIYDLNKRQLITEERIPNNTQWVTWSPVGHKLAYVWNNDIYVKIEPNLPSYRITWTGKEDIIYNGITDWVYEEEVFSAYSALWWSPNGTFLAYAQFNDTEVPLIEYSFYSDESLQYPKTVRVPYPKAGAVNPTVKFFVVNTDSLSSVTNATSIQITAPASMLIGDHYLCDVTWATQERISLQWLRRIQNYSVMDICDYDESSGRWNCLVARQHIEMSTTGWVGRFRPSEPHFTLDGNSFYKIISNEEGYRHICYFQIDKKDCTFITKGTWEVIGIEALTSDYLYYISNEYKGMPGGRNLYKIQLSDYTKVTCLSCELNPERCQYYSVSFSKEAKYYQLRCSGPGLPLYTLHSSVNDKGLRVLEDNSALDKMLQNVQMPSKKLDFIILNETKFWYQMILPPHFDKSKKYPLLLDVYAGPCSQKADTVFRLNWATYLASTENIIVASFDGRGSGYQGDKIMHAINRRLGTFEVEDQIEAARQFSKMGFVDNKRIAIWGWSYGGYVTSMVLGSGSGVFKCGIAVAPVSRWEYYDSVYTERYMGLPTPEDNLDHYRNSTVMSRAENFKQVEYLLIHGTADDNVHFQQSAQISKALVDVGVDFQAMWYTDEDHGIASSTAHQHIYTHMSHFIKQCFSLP

The experiment concerns the target DPP-IV enzyme (Homo sapiens, UniProt P27487). Nature of the experiment: Assay for determining DPP-IV inhibitory activity (DPP-IV-Glo luminescence).
Method: IC50 was determined by a NovoStar ELIASA (BMG Co. German);
The definition of inhibitory rate: [1−(S−B)/(N−B)]*100%
As to `CS(=O)(=O)CCNC(=O)c1nc(C(F)(F)F)n2c1CN(C(=O)C[C@H](N)Cc1cc(F)c(F)cc1F)CC2` [Example 2, (R)-7-[3-Amino-4-(2,4,5-trifluoro-phenyl)-butyryl]-3-trifluoromethyl-5,6,7,8-tetrahydro-imidazo[1,5-a]pyrazine-1-carboxylic acid (2-methanesulfonyl-ethyl)-amide hydrochloride], the IC50 is 8 nM.

In turn, `N[C@@H](CC(=O)N1CCn2c(C(F)(F)F)nc(C(=O)N3CCOCC3)c2C1)Cc1cc(F)c(F)cc1F` [Example 3, (R)-3-Amino-1-[1-(morpholine-4-carbonyl)-3-trifluoromethyl-5,6-dihydro-8H-imidazo[1,5-a]pyrazin-7-yl]-4-(2,4,5-trifluoro-phenyl)-butan-1-one hydrochloride] displayed an IC50 of 89 nM.

In the case of `N#CCNC(=O)c1nc(C(F)(F)F)n2c1CN(C(=O)C[C@H](N)Cc1cc(F)c(F)cc1F)CC2` [Example 4, (R)-7-[3-Amino-4-(2,4,5-trifluoro-phenyl)-butyryl]-3-trifluoromethyl-5,6,7,8-tetrahydro-imidazo[1,5-a]pyrazine-1-carboxylic acid cyanomethyl-amide hydrochloride], the half-maximal inhibitory concentration (IC50) turned out to be 22 nM. Against the preceding compound, the IC50 is about 4-fold lower.

For the compound `CN1CCN(C(=O)c2nc(C(F)(F)F)n3c2CN(C(=O)C[C@H](N)Cc2cc(F)c(F)cc2F)CC3)CC1` [Example 5, (R)-3-Amino-1-[1-(4-methyl-piperazine-1-carbonyl)-3-trifluoromethyl-5,6-dihydro-8H-imidazo[1,5-a]pyrazin-7-yl]-4-(2,4,5-trifluoro-phenyl)-butan-1-one dihydrochloride], the IC50 was 27 nM. The IC50 values of the last two compounds are within 1.5-fold of each other.

For the compound `N[C@@H](CC(=O)N1CCn2c(C(F)(F)F)nc(C(=O)N3CCS(=O)(=O)CC3)c2C1)Cc1cc(F)c(F)cc1F` [Example 6, (R)-3-Amino-1-[1-(1,1-dioxo-thiomorpholine-4-carbonyl)-3-trifluoromethyl-5,6-dihydro-8H-imidazo[1,5-a]pyrazin-7-yl]-4-(2,4,5-trifluoro-phenyl)-butan-1-one hydrochloride], the concentration for half-maximal inhibition (IC50) was 31 nM.

As for `NC(=O)C1CCN(C(=O)c2nc(C(F)(F)F)n3c2CN(C(=O)C[C@H](N)Cc2cc(F)c(F)cc2F)CC3)CC1` [Example 7, (R)-1-{7-[3-Amino-4-(2,4,5-trifluoro-phenyl)-butyryl]-3-trifluoromethyl-5,6,7,8-tetrahydro-imidazo[1,5-a]pyrazine-1-carbonyl}-piperidine-4-carboxylic acid amide hydrochloride], the IC50 came to 25 nM. The IC50 values of the last two compounds are within 1.5-fold of each other.

As to `CNC(=O)c1nc(C(F)(F)F)n2c1CN(C(=O)C[C@H](N)Cc1cc(F)c(F)cc1F)CC2` [Example 8, (R)-7-[3-Amino-4-(2,4,5-trifluoro-phenyl)-butyryl]-3-trifluoromethyl-5,6,7,8-tetrahydro-imidazo[1,5-a]pyrazine-1-carboxylic acid methylamide hydrochloride], the IC50 worked out at 8 nM.

As to `CN(C)C(=O)c1nc(C(F)(F)F)n2c1CN(C(=O)C[C@H](N)Cc1cc(F)c(F)cc1F)CC2` [Example 9, (R)-7-[3-Amino-4-(2,4,5-trifluoro-phenyl)-butyryl]-3-trifluoromethyl-5,6,7,8-tetrahydro-imidazo[1,5-a]pyrazine-1-carboxylic acid dimethylamide hydrochloride], 75 nM corresponded to half-maximal inhibition (IC50).

As to `N[C@@H](CC(=O)N1CCn2c(C(F)(F)F)nc(C(=O)O)c2C1)Cc1cc(F)c(F)cc1F` [Example 10, (R)-7-[3-Amino-4-(2,4,5-trifluoro-phenyl)-butyryl]-3-trifluoromethyl-5,6,7,8-tetrahydro-imidazo[1,5-a]pyrazine-1-carboxylic acid hydrochloride], the IC50 worked out at 21 nM.

`N[C@@H]1CCCN(C(=O)c2nc(C(F)(F)F)n3c2CN(C(=O)C[C@H](N)Cc2cc(F)c(F)cc2F)CC3)C1` [Example 11, (R)-3-Amino-1-[1-(3-amino-piperidine-1-carbonyl)-3-trifluoromethyl-5,6-dihydro-8H-imidazo[1,5-a]pyrazin-7-yl]-4-(2,4,5-trifluoro-phenyl)-butan-1-one dihydrochloride]: the IC50 was 216 nM.

`N[C@@H](CC(=O)N1CCn2c(C(F)(F)F)nc(C(=O)N3CCCC3)c2C1)Cc1cc(F)c(F)cc1F` [Example 12, (R)-3-Amino-1-[1-(pyrrolidine-1-carbonyl)-3-trifluoromethyl-5,6-dihydro-8H-imidazo[1,5-a]pyrazin-7-yl]-4-(2,4,5-trifluoro-phenyl)-butan-1-one hydrochloride]: it took 59 nM to reach half-maximal inhibition (IC50).

In the case of `N[C@@H](CC(=O)N1CCn2c(C(F)(F)F)nc(C(=O)N3CCNCC3)c2C1)Cc1cc(F)c(F)cc1F` [Example 13, (R)-3-Amino-1-[1-(piperazine-1-carbonyl)-3-trifluoromethyl-5,6-dihydro-8H-imidazo[1,5-a]pyrazin-7-yl]-4-(2,4,5-trifluoro-phenyl)-butan-1-one dihydrochloride], half-maximal inhibition (IC50) required 41 nM.

Regarding `N[C@@H](CC(=O)N1CCn2c(C(F)(F)F)nc(C(=O)N3CC[C@@H](O)C3)c2C1)Cc1cc(F)c(F)cc1F` [Example 14, (R)-3-Amino-1-[1-((R)-3-hydroxy-pyrrolidine-1-carbonyl)-3-trifluoromethyl-5,6-dihydro-8H-imidazo[1,5-a]pyrazin-7-yl]-4-(2,4,5-trifluoro-phenyl)-butan-1-one hydrochloride], the IC50 is 47 nM. This IC50 and that of the compound before are within 1.5-fold of each other.

Regarding `N[C@@H](CC(=O)N1CCn2c(C(F)(F)F)nc(C(=O)NC3CC3)c2C1)Cc1cc(F)c(F)cc1F` [Example 15, (R)-7-[3-Amino-4-(2,4,5-trifluoro-phenyl)-butyryl]-3-trifluoromethyl-5,6,7,8-tetrahydro-imidazo[1,5-a]pyrazine-1-carboxylic acid cyclopropylamide hydrochloride], the half-maximal inhibitory concentration (IC50) was found to be 25 nM.

`CCOC(=O)c1nc(C(F)(F)F)n2c1CN(C(=O)C[C@H](N)Cc1cc(F)c(F)cc1F)CC2` [Example 23, (R)-7-[3-Amino-4-(2,4,5-trifluoro-phenyl)-butyryl]-3-trifluoromethyl-5,6,7,8-tetrahydro-imidazo[1,5-a]pyrazine-1-carboxylic acid ethyl ester hydrochloride] had an IC50 of 31 nM.

Compound `CCOC(=O)OC(C)OC(=O)c1nc(C(F)(F)F)n2c1CN(C(=O)C[C@H](N)Cc1cc(F)c(F)cc1F)CC2` (stereo partly drawn) [Example 34, (R)-7-[3-Amino-4-(2,4,5-trifluoro-phenyl)-butyryl]-3-trifluoromethyl-5,6,7,8-tetrahydro-imidazo[1,5-a]pyrazine-1-carboxylic acid (1-ethoxycarbonyloxy)-ethyl ester hydrochloride] had an IC50 of 31 nM.

`CC(C)(C)OC(=O)c1nc(C(F)(F)F)n2c1CN(C(=O)C[C@H](N)Cc1cc(F)c(F)cc1F)CC2` [Example 36, (R)-7-[3-Amino-4-(2,4,5-trifluoro-phenyl)-butyryl]-3-trifluoromethyl-5,6,7,8-tetrahydro-imidazo[1,5-a]pyrazine-1-carboxylic acid tert-butyl ester hydrochloride] displayed an IC50 of 221 nM.

As to `CC(C)OC(=O)OC(C)OC(=O)c1nc(C(F)(F)F)n2c1CN(C(=O)C[C@H](N)Cc1cc(F)c(F)cc1F)CC2` (stereo partly drawn) [Example 37, (R)-7-[3-Amino-4-(2,4,5-trifluoro-phenyl)-butyryl]-3-trifluoromethyl-5,6,7,8-tetrahydro-imidazo[1,5-a]pyrazine-1-carboxylic acid 1-isopropoxycarbonyloxy-ethyl ester hydrochloride], the IC50 amounted to 33 nM.

In the case of `CC(OC(=O)OC1CCCCC1)OC(=O)c1nc(C(F)(F)F)n2c1CN(C(=O)C[C@H](N)Cc1cc(F)c(F)cc1F)CC2` (stereo partly drawn) [Example 38, (R)-7-[3-Amino-4-(2,4,5-trifluoro-phenyl)-butyryl]-3-trifluoromethyl-5,6,7,8-tetrahydro-imidazo[1,5-a]pyrazine-1-carboxylic acid (1-cyclohexyloxycarbonyloxy)-ethyl ester hydrochloride], the IC50 worked out at 184 nM.

With `COC(=O)c1nc(C(F)(F)F)n2c1C(C)N(C(=O)C[C@H](N)Cc1cc(F)c(F)cc1F)CC2` (stereo partly drawn) [Example 39, (R)-7-[3-Amino-4-(2,4,5-trifluoro-phenyl)-butyryl]-8-methyl-3-trifluoromethyl-5,6,7,8-tetrahydro-imidazo[1,5-a]pyrazine-1-carboxylic acid methyl ester hydrochloride], the IC50 is 16 nM. Against the preceding compound, the IC50 is about 12-fold lower.

`COC(=O)c1nc(C(F)(F)F)n2c1[C@H](C)N(C(=O)C[C@H](N)Cc1cc(F)c(F)cc1F)CC2` [Example 40, (R)-7-[3-Amino-4-(2,4,5-trifluoro-phenyl)-butyryl]-(S)-8-methyl-3-trifluoromethyl-5,6,7,8-tetrahydro-imidazo[1,5-a]pyrazine-1-carboxylic acid methyl ester hydrochloride] came in with an IC50 of 314 nM.

`COC(=O)c1nc(C(F)(F)F)n2c1[C@@H](C)N(C(=O)C[C@H](N)Cc1cc(F)c(F)cc1F)CC2` [Example 41, (R)-7-[3-Amino-4-(2,4,5-trifluoro-phenyl)-butyryl]-(R)-8-methyl-3-trifluoromethyl-5,6,7,8-tetrahydro-imidazo[1,5-a]pyrazine-1-carboxylic acid methyl ester hydrochloride]: the IC50 stood at 5 nM. This IC50 is about 63-fold lower than that of the compound before.

In turn, `CCNC(=O)c1nc(C(F)(F)F)n2c1CN(C(=O)C[C@H](N)Cc1cc(F)c(F)cc1F)CC2` [Example 42, (R)-7-[3-Amino-4-(2,4,5-trifluoro-phenyl)-butyryl]-3-trifluoromethyl-5,6,7,8-tetrahydro-imidazo[1,5-a]pyrazine-1-carboxylic acid ethylamide] returned an IC50 of 18 nM.

Compound `CCCCNC(=O)c1nc(C(F)(F)F)n2c1CN(C(=O)C[C@H](N)Cc1cc(F)c(F)cc1F)CC2` [Example 43, (R)-7-[3-Amino-4-(2,4,5-trifluoro-phenyl)-butyryl]-3-trifluoromethyl-5,6,7,8-tetrahydro-imidazo[1,5-a]pyrazine-1-carboxylic acid butylamide] came in with an IC50 of 63 nM.

Take `CCCNC(=O)c1nc(C(F)(F)F)n2c1CN(C(=O)C[C@H](N)Cc1cc(F)c(F)cc1F)CC2` [Example 44, (R)-7-[3-Amino-4-(2,4,5-trifluoro-phenyl)-butyryl]-3-trifluoromethyl-5,6,7,8-tetrahydro-imidazo[1,5-a]pyrazine-1-carboxylic acid propylamide]: it took 52 nM to reach half-maximal inhibition (IC50).

Usually IC50 stands for the point on the concentration scale where inhibition reaches its midpoint. Higher therefore signals a need for much substance.
